In article PMC7673538 (PLoS Biology, 2020):
“And” between values parts separate entries of the source, which are not always exact repeats. Equal values may be shown once. Read-outs that look alike come from different tables or passages of the source.

Assays:
[1] = system: EV-D68; assay: microbe, parasite or virus in culture; format: cell-based, enterovirus D68
[2] = system: HRV-A2; assay: microbe, parasite or virus in culture; format: cell-based, human rhinovirus
[3] = system: HRV-B14; assay: microbe, parasite or virus in culture; format: cell-based, human rhinovirus
[4] = system: representative EVs and RVs; format: cell-based
[5] = molecular target: T1, human SERT (Homo sapiens, UniProt P31645); format: cell-based; details: for SERT, Mean (Figure 8B): Control = 100.00; for SERT, Mean as % (Figure 8B): Control = 100%
T1 construct: expressed in transfected cells; host or cells: HEK293 (gift of Dr. Hoener, F. Hoffmann-La Roche)
T1 sequence (P31645 whole entry): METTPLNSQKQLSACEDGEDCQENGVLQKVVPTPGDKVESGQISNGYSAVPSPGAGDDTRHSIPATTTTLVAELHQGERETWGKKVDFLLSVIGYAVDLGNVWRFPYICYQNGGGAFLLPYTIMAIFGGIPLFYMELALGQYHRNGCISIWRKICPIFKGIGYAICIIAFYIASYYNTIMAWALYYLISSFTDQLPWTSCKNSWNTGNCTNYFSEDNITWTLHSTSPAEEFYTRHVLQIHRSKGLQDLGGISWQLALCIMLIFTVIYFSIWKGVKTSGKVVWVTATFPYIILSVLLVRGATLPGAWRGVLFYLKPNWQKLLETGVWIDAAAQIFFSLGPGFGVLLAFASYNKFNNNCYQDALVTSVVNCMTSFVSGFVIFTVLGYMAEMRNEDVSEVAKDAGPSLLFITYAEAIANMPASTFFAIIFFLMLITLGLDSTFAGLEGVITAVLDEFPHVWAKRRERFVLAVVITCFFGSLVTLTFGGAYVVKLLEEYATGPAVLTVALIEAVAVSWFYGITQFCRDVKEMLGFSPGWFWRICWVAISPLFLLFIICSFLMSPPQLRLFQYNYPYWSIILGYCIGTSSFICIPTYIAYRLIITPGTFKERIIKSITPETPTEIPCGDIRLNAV

[6] = molecular target: T2, human DAT (Homo sapiens, UniProt Q01959); format: cell-based; details: for DAT, Mean (Figure 8B): Control = 100
T2 construct: expressed in transfected cells; host or cells: HEK293 (gift of Dr. Hoener, F. Hoffmann-La Roche)
T2 sequence (Q01959 whole entry): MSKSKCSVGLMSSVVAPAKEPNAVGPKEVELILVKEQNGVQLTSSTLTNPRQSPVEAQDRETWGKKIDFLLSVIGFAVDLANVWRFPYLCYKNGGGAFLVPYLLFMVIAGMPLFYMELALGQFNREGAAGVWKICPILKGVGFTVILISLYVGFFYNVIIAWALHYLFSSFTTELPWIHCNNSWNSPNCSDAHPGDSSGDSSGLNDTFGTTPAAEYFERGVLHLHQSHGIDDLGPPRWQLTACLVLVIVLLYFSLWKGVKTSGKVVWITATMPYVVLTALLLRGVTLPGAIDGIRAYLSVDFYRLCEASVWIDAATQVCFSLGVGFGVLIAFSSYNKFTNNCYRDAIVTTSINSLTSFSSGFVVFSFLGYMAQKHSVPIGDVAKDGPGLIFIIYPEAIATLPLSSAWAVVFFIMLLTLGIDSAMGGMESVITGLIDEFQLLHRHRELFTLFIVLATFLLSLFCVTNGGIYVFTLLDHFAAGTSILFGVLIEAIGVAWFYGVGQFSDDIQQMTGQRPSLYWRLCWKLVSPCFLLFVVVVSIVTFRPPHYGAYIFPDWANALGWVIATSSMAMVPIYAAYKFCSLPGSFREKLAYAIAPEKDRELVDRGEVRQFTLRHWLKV

[7] = molecular target: T3, human NET (Homo sapiens, UniProt P23975); format: cell-based; details: for NET, Mean (Figure 8B): Control = 100; for NET, Mean as % (Figure 8B): Control = 100%
T3 construct: expressed in transfected cells; host or cells: HEK293 (gift of Dr. Hoener, F. Hoffmann-La Roche)
T3 sequence (P23975 whole entry): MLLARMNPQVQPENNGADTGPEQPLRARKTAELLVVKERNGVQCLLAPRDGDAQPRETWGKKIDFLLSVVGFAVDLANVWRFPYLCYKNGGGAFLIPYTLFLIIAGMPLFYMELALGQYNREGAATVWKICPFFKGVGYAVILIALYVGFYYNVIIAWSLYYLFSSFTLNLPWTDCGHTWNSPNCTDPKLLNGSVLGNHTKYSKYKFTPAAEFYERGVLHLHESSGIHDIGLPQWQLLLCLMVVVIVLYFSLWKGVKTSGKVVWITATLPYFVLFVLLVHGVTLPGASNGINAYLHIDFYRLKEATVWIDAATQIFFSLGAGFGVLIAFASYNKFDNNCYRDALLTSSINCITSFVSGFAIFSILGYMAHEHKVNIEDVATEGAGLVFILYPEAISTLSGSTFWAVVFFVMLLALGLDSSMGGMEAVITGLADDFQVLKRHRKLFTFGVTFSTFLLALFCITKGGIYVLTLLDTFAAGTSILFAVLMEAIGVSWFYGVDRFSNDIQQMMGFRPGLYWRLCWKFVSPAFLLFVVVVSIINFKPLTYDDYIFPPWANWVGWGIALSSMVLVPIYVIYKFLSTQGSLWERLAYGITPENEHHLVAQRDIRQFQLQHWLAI

Structure (SMILES): O=C(c1cc[nH]c1)N(Cc1ccc(F)cc1)c1ccccc1 [Compound 12b, N-(4-Fluorobenzyl)-N-phenyl-1H-pyrrole-3-carboxamide]
- Figure 7 dose-response raw data, EV-D68 (triplicate values) ([1]; Concentration 0.0137 µM): 11.1333 and 12.4782 and 12.9265
- Figure 7 dose-response raw data, EV-D68 (triplicate values) ([1]; Concentration 0.0412 µM): 10.386 and 11.4321 and 12.9265
- Figure 7 dose-response raw data, EV-D68 (triplicate values) ([1]; Concentration 0.1235 µM): 107.007 and 105.506 and 109.76
- Figure 7 dose-response raw data, EV-D68 (triplicate values) ([1]; Concentration 0.3704 µM): 98.999 and 100.501 and 112.888
- Figure 7 dose-response raw data, EV-D68 (triplicate values) ([1]; Concentration 1.1111 µM): 104.38 and 102.252 and 111.637
- Figure 7 dose-response raw data, EV-D68 (triplicate values) ([1]; Concentration 3.3333 µM): 103.504 and 113.389
- Figure 7 dose-response raw data, EV-D68 (triplicate values) ([1]; Concentration 10 µM): 95.6204 and 100.626 and 112.763
- EC50 ([1]; Enterovirus D, EVD68, HeLa R19, read-out: EC50 EV-D68): 86 ± 7.1 nM
- EC50 ([1]; Enterovirus D, EVD68, HeLa R19, read-out: Table in Figure 7A, EVD68, AVERAGE): 85.7 nM
- EC50 ([1]; Enterovirus D, EVD68, HeLa R19, read-out: Table in Figure 7A, EVD68, exp1-exp3): 88 nM
- EC50 ([1]; read-out: Table in Figure 7A, EVD68, exp1-exp3): 93 nM and 76 nM
- Figure 7 dose-response raw data, HRV-A2 (triplicate values) ([2]; Concentration 0.0046 µM): 14.2402 and 14.6225 and 13.0933
- Figure 7 dose-response raw data, HRV-A2 (triplicate values) ([2]; Concentration 0.0137 µM): 14.2402 and 14.6225 and 13.0933
- Figure 7 dose-response raw data, HRV-A2 (triplicate values) ([2]; Concentration 0.0412 µM): 15.1004 and 21.3125 and 13.3801
- Figure 7 dose-response raw data, HRV-A2 (triplicate values) ([2]; Concentration 0.1235 µM): 12.6155 and 13.1889 and 12.7111
- Figure 7 dose-response raw data, HRV-A2 (triplicate values) ([2]; Concentration 0.3704 µM): 13.0933 and 13.1889 and 13.7623
- Figure 7 dose-response raw data, HRV-A2 (triplicate values) ([2]; Concentration 1.1111 µM): 12.6155 and 14.1446 and 14.4314
- Figure 7 dose-response raw data, HRV-A2 (triplicate values) ([2]; Concentration 3.3333 µM): 83.2845 and 84.4313 and 84.7181
- Figure 7 dose-response raw data, HRV-A2 (triplicate values) ([2]; Concentration 11.1111 µM): 99.5652 and 104.147 and 110.034
- Figure 7 dose-response raw data, HRV-A2 (triplicate values) ([2]; Concentration 33.3333 µM): 100.093 and 102.52 and 105.578
- Figure 7 dose-response raw data, HRV-A2 (triplicate values) ([2]; Concentration 100 µM): 100.093 and 102.52 and 105.578
- EC50 ([2]; Human rhinovirus sp., HRV2 / HRVA2, HeLa R19, read-out: Table in Figure 7A, HRV2, AVERAGE): 2750 nM
- EC50 ([2]; Human rhinovirus sp., HRV2 / HRVA2, HeLa R19, read-out: Table in Figure 7A, HRV2, exp1-exp3): 2760 nM
- EC50 ([2]; read-out: Table in Figure 7A, HRV2, exp1-exp3): 3210 nM and 2280 nM
- Figure 7 dose-response raw data, HRV_B14 (triplicate values) ([3]; Concentration 0.0046 µM): 15.2266 and 14.5606
- Figure 7 dose-response raw data, HRV_B14 (triplicate values) ([3]; Concentration 0.0137 µM): 10.2522 and 17.3246 and 10.943
- Figure 7 dose-response raw data, HRV_B14 (triplicate values) ([3]; Concentration 0.0412 µM): 15.2266 and 14.5606 and 17.3246
- Figure 7 dose-response raw data, HRV_B14 (triplicate values) ([3]; Concentration 0.1235 µM): 106.02 and 106.455 and 105.786
- Figure 7 dose-response raw data, HRV_B14 (triplicate values) ([3]; Concentration 0.3704 µM): 105.351 and 107.391 and 106.589
- Figure 7 dose-response raw data, HRV_B14 (triplicate values) ([3]; Concentration 1.1111 µM): 98.3946 and 107.926 and 101.94
- Figure 7 dose-response raw data, HRV_B14 (triplicate values) ([3]; Concentration 3.3333 µM): 99.5652 and 104.147 and 110.034
- Figure 7 dose-response raw data, HRV_B14 (triplicate values) ([3]; Concentration 11.1111 µM): 98.3946 and 107.926 and 101.94
- Figure 7 dose-response raw data, HRV_B14 (triplicate values) ([3]; Concentration 33.3333 µM): 99.2522 and 114.147 and 100.034
- Figure 7 dose-response raw data, HRV_B14 (triplicate values) ([3]; Concentration 100 µM): 99.5652 and 104.147 and 100.034
- EC50 ([3]; Human rhinovirus sp., HRV14 / HRVB14, HeLa R19, read-out: Table in Figure 7A, HRV14, AVERAGE): 95.3 nM
- EC50 ([3]; Human rhinovirus sp., HRV14 / HRVB14, HeLa R19, read-out: Table in Figure 7A, HRV14, exp1-exp3): 112 nM
- EC50 ([3]; Human rhinovirus sp., HRVB14, HeLa R19, read-out: EC50 HRV-B14): 95 ± 120 nM
- EC50 ([3]; read-out: Table in Figure 7A, HRV14, exp1-exp3): 90 nM and 84 nM
- spectrum of antiviral activity (in words) [4]: improved antiviral profile against all tested viruses
- SERT, Mean (Figure 8B) ([5]; 1µM): 88.76
- SERT, Mean as % (Figure 8B) ([5]; 1µM): 89%
- SERT, Mean (Figure 8B) ([5]; 100µM): 102.47
- SERT, Mean as % (Figure 8B) ([5]; 100µM): 102%
- inhibition of SERT-mediated uptake (in words) ([5]; HEK293 cells expressing human SERT, 1 and 100 μM): neither 12a, 19b, 19d, nor the combined compound 12b inhibited
- DAT, Mean (Figure 8B) ([6]; 1µM): 98.697
- DAT, Mean as % (Figure 8B) ([6]; 1µM, Control = 100%): 103%
- DAT, Mean (Figure 8B) ([6]; 100µM): 90.1253
- inhibition of DAT function (in words) ([6]; HEK293 cells expressing human DAT, 1 μM or 100 μM): neither 12a, 19b, 19d, nor the combined compound 12b inhibited
- NET, Mean (Figure 8B) ([7]; 1µM): 100
- NET, Mean as % (Figure 8B) ([7]; 1µM): 100%
- NET, Mean (Figure 8B) ([7]; 100µM): 103.417
- NET, Mean as % (Figure 8B) ([7]; 100µM): 103%
- inhibition of NET function (in words) ([7]; HEK293 cells expressing human NET, 1 μM or 100 μM): neither 12a, 19b, 19d, nor the combined compound 12b inhibited
